Common to all, as to test: ≥ marks a high value that may be exact or a test limit, other limits are often not marked, values filed in µg/mL are converted to µM
The test system of assay [1] is Escherichia coli ATCC 25922.
Assay [2] relates to Escherichia coli UB1005.
The subject of assay [3] is Listeria monocytogenes CMCC 54004.
The subject of assay [4] is Salmonella enterica subsp. enterica serovar Pullorum C79-13.
The subject of assay [5] is Salmonella enterica subsp. enterica serovar Typhi CMCC 50071.
In assay [6] the test system is Staphylococcus aureus ATCC 29213.
The subject of assay [7] is Bacillus megaterium Bm11.
The subject of assay [8] is Escherichia coli D21.
Assay [9] concerns Escherichia coli ML-35.
The subject of assay [10] is Salmonella enterica subsp. enterica serovar Typhimurium ATCC 14028.
The test system of assay [11] is Serratia marcescens ATCC 8100.
In assay [12] the test system is Staphylococcus epidermidis ATCC 12228.
Assay [13] has as its system Bacillus subtilis KCTC 1998.
Assay [14] concerns Candida albicans KCTC 7270.
Assay [15] deals with Escherichia coli CCARM 1229.
Assay [16] has as its system Escherichia coli CCARM 1238.
Assay [17] concerns Listeria monocytogenes KCTC 3710.
Assay [18] has as its system Pseudomonas aeruginosa 4007.
In assay [19] the test system is Pseudomonas aeruginosa 4891.
For assay [20], the system named is Pseudomonas aeruginosa ATCC 27853.
Assay [21] has as its system Salmonella typhimurium KCTC 1926.
Assay [22] has as its system Staphylococcus aureus ATCC 25923.
Assay [23] deals with Staphylococcus aureus CCARM 3090.
Assay [24] relates to Staphylococcus aureus CCARM 3518.
For assay [25], the system named is Trichosporon beigelii KCTC 7707.
Assay [26] deals with Aspergillus flavus KCTC 6905.
Assay [27] has as its system Aspergillus fumigatus KCTC 6145.
Assay [28] concerns Candida albicans ATCC 90028.
In assay [29] the test system is Candida parapsilosis ATCC 22019.
Assay [30] deals with Enterococcus faecalis ATCC 29212.
For assay [31], the system named is Enterococcus faecium ATCC 19434.
In assay [32] the test system is Escherichia coli BW25113.
Assay [33] relates to Malassezia furfur KCTC 7744.
Assay [34] deals with Salmonella enterica subsp. enterica serovar Enteritidis ATCC 13076.
Assay [35] concerns Staphylococcus epidermidis KCTC 1917.
Assay [36] deals with Streptococcus mutans KCTC 3065.
Assay [37] relates to Bacillus subtilis.
In assay [38] the test system is Escherichia coli.
Assay [39] deals with Klebsiella pneumoniae ATCC 13883.
In assay [40] the test system is Staphylococcus aureus ATCC BAA-44.
Assay [41] deals with Staphylococcus epidermidis ATCC 51625.
For assay [42], the system named is Streptococcus pyogenes ATCC 19615.

Molecules are shown by their SMILES. ≈ marks a conversion by molar mass, not a printed value.

With `CC(C)C[C@H](NC(=O)[C@H](CCC(N)=O)NC(=O)[C@@H]1CCCN1C(=O)[C@@H](NC(=O)[C@H](CCCCN)NC(=O)[C@H](Cc1ccc(O)cc1)NC(=O)[C@H](CCCCN)NC(=O)[C@H](CCCCN)NC(=O)[C@H](CC(C)C)NC(=O)[C@H](CCCN=C(N)N)NC(=O)[C@@H](N)CC(C)C)C(C)C)C(=O)O` [LRLKKYKVPQL], the MIC (in general, the smallest concentration in the dilution series that meets the test's criterion for growth inhibition) is 64 µM (≈ 88.7 µg/mL) in [1]; at least 128 µM in assay [2]; at least 64 µM in assay [3]; at least 256 µM in [4]; at least 256 µM in assay [5]; 640 µM (≈ 887 µg/mL) in [6].
`CC(C)C[C@H](NC(=O)[C@H](Cc1ccc(O)cc1)NC(=O)[C@@H]1CCCN1C(=O)[C@@H]1CCCN1C(=O)[C@H](CCCN=C(N)N)NC(=O)[C@@H]1CCCN1C(=O)[C@H](CCCN=C(N)N)NC(=O)[C@H](CCCN=C(N)N)NC(=O)[C@@H](N)CCCN=C(N)N)C(=O)N1CCC[C@H]1C(=O)N1CCC[C@H]1C(=O)N[C@@H](CCCN=C(N)N)C(=O)N[C@@H](CCCN=C(N)N)C(=O)N1CCC[C@H]1C(=O)N1CCC[C@H]1C(=O)O` [RRRPRPPYLPPRRPP]: the minimal inhibitory concentration (MIC) in [7] is at least 32 µM; in [8], 16 µM (≈ 30.6 µg/mL); in assay [9] it was at least 32 µM; in [10], 8 µM (≈ 15.3 µg/mL); in [11], at least 32 µM; in assay [12] it was over 64 µM.
Consider `CC[C@H](C)[C@H](NC(=O)CNC(=O)[C@H](CCC(N)=O)NC(=O)[C@H](Cc1ccccc1)NC(=O)[C@@H](NC(=O)[C@H](CCCCN)NC(=O)[C@H](CCCCN)NC(=O)[C@H](CC(C)C)NC(=O)[C@H](C)NC(=O)[C@H](CC(N)=O)NC(=O)[C@H](CC(C)C)NC(=O)[C@@H](N)Cc1c[nH]c2ccccc12)C(C)C)C(=O)N[C@@H](Cc1cnc[nH]1)C(=O)N[C@@H](CCC(=O)O)C(=O)N[C@@H](C)C(=O)N[C@H](C(=O)N[C@@H](CCCCN)C(=O)N[C@@H](CC(C)C)C(=O)N[C@H](C(=O)N[C@@H](Cc1c[nH]c2ccccc12)C(=O)N[C@@H](CC(N)=O)C(=O)N[C@@H](Cc1cnc[nH]1)C(=O)N[C@H](C(=O)N[C@@H](CCC(N)=O)C(N)=O)C(C)C)[C@@H](C)CC)[C@@H](C)CC` [WLNALKKVFQGIHEAIKLIWNHVQ], for which the minimal inhibitory concentration (MIC) in assay [13] is 4 µM (≈ 11.5 µg/mL); in assay [14] it was at least 32 µM; in assay [1], 2 µM (≈ 5.77 µg/mL); in [15], 2 µM (≈ 5.77 µg/mL); in assay [16], 2 µM (≈ 5.77 µg/mL); in assay [17], 8 µM (≈ 23.1 µg/mL). Moreover, the MIC came out at 2 µM (≈ 5.77 µg/mL) in assay [18]; 4 µM (≈ 11.5 µg/mL) in [19]; 2 µM (≈ 5.77 µg/mL) in assay [20]; 2 µM (≈ 5.77 µg/mL) in assay [21]; 4 µM (≈ 11.5 µg/mL) in [22]; 4 µM (≈ 11.5 µg/mL) in assay [23]. For the same compound, the values for the MIC in assay [24] and in [25] were 4 µM (≈ 11.5 µg/mL) and at least 32 µM, respectively.
As for `CC(C)C[C@H](NC(=O)[C@H](CCCCN)NC(=O)[C@H](CC(C)C)NC(=O)[C@H](CC(N)=O)NC(=O)[C@H](CC(C)C)NC(=O)[C@H](CCCCN)NC(=O)[C@H](CS)NC(=O)[C@@H]1CCCN1C(=O)[C@@H](N)Cc1ccc(O)cc1)C(=O)NCC(=O)N[C@@H](CCCCN)C(=O)N[C@H](C(=O)N1CCC[C@H]1C(=O)N[C@@H](Cc1ccccc1)C(=O)N[C@@H](Cc1cnc[nH]1)C(N)=O)C(C)C` [YPCKLNLKLGKVPFH], the minimal inhibitory concentration (MIC) in assay [26] was 10 µM (≈ 17.6 µg/mL); in assay [27] it was 10 µM (≈ 17.6 µg/mL); in [28], 10 µM (≈ 17.6 µg/mL); in [29] it was 5 µM (≈ 8.78 µg/mL); in assay [30], 2.5 µM (≈ 4.39 µg/mL); in assay [31] it was 2.5 µM (≈ 4.39 µg/mL). For the same compound, the MIC in [32] was 5 µM (≈ 8.78 µg/mL); in assay [33], 5 µM (≈ 8.78 µg/mL); in [20] it was 10 µM (≈ 17.6 µg/mL); in [34], 5 µM (≈ 8.78 µg/mL); in [21], 5 µM (≈ 8.78 µg/mL); in assay [35], 5 µM (≈ 8.78 µg/mL). Moreover, the minimum inhibitory concentration (MIC) in assay [36] and in [25] was 5 µM (≈ 8.78 µg/mL) in each case.
Regarding `CC(C)C[C@H](NC(=O)[C@H](CO)NC(=O)[C@H](CCCN=C(N)N)NC(=O)[C@H](CCCCN)NC(=O)[C@@H](NC(=O)[C@@H](NC(=O)CNC(=O)[C@H](CCCN=C(N)N)NC(=O)[C@H](Cc1cnc[nH]1)NC(=O)[C@H](Cc1c[nH]c2ccccc12)NC(=O)[C@H](Cc1ccccc1)NC(=O)[C@H](Cc1cnc[nH]1)NC(=O)[C@H](Cc1ccc(O)cc1)NC(=O)[C@@H](N)Cc1ccc(O)cc1)C(C)C)[C@@H](C)O)C(=O)N[C@@H](CO)C(=O)N1CCC[C@H]1C(=O)N[C@@H](Cc1cnc[nH]1)C(=O)N[C@@H](CCCN=C(N)N)C(=O)N1CCC[C@H]1C(=O)N[C@@H](CCCN=C(N)N)C(=O)O` [YYHFWHRGVTKRSLSPHRPR], the MIC in assay [37] was 6 µM (≈ 15.5 µg/mL); in assay [30], 6 µM (≈ 15.5 µg/mL); in assay [38] it was 6 µM (≈ 15.5 µg/mL); in assay [39], 6 µM (≈ 15.5 µg/mL); in assay [20] it was 8 µM (≈ 20.6 µg/mL); in assay [10], 8 µM (≈ 20.6 µg/mL). The minimal inhibitory concentration (MIC) in assay [22] turned out to be 6 µM (≈ 15.5 µg/mL); in assay [40], 30 µM (≈ 77.4 µg/mL); in assay [41], 30 µM (≈ 77.4 µg/mL); in assay [42], 15 µM (≈ 38.7 µg/mL).

The values are drawn from DBAASP.
